According to ChEMBL document CHEMBL1201862, “PubChem BioAssay data set” (2004):
Activity calls are given as the source filed them.

Key:
[1] = Luminescence Cell-Based Dose Confirmation HTS to Identify Inhibitors of Platelet Dense Granule Release. [Related pubchem assays: 1663 (Primary HTS), 1678 (Summary of Project)]; assay type: functional
[2] = biological target: Luciferin 4-monooxygenase (Photinus pyralis, UniProt P08659); assay: inhibition of purified Photinus pyralis luciferase – biochemical, luminescence, dose response (AID 1891)
Sequence of Luciferin 4-monooxygenase (P08659 whole entry): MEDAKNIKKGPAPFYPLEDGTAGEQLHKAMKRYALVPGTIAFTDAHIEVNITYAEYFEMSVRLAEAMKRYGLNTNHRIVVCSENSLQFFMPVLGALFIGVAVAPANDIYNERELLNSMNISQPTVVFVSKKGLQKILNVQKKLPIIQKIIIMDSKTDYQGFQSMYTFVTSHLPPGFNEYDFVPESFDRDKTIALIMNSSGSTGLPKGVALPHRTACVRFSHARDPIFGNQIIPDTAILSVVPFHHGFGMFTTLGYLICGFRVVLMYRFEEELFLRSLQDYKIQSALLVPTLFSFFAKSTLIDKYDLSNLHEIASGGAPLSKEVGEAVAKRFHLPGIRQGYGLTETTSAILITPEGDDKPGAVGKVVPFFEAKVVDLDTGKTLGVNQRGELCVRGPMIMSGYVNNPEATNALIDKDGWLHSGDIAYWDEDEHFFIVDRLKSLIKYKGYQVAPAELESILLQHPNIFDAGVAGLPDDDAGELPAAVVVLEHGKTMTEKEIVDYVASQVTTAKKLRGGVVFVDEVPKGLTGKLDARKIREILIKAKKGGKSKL

cells = assay type: functional
Large T antigen = Large T antigen (Simian virus 40, UniProt P03070); assay type: functional, Betapolyomavirus macacae;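 also: Confirmatory-stage PubChem screen for compounds that inhibit SV40 T antigen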
Sequence of Large T antigen (P03070 whole entry): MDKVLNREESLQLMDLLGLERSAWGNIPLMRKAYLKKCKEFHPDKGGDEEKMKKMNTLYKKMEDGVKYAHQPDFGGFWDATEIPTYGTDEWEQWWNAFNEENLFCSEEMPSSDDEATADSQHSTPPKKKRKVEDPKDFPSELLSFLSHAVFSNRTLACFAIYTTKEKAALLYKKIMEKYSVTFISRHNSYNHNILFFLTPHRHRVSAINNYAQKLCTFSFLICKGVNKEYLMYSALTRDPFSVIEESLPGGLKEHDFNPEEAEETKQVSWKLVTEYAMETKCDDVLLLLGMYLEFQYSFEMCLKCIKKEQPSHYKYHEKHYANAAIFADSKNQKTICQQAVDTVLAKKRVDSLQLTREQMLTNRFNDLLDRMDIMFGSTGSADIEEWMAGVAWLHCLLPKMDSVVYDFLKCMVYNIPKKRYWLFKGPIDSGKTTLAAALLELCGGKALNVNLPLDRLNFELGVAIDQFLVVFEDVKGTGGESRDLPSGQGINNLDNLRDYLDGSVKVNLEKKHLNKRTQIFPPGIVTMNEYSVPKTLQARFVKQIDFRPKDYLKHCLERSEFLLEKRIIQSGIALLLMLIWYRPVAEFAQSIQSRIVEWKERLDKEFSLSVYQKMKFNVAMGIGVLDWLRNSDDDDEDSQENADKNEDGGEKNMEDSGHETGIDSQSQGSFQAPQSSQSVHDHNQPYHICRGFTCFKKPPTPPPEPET

[3] = Luminescence Cell-Based Dose Retest to Confirm Inhibitors of Cancer Stem Cells. [Related pubchem assays (depositor defined):AID2717, AID2721]; assay type: functional; settings: Homo sapiens
Cytochrome P450 2C9 = Cytochrome P450 2C9 (Homo sapiens, UniProt P11712)
Sequence of Cytochrome P450 2C9 (P11712 whole entry, the tested form may be a part): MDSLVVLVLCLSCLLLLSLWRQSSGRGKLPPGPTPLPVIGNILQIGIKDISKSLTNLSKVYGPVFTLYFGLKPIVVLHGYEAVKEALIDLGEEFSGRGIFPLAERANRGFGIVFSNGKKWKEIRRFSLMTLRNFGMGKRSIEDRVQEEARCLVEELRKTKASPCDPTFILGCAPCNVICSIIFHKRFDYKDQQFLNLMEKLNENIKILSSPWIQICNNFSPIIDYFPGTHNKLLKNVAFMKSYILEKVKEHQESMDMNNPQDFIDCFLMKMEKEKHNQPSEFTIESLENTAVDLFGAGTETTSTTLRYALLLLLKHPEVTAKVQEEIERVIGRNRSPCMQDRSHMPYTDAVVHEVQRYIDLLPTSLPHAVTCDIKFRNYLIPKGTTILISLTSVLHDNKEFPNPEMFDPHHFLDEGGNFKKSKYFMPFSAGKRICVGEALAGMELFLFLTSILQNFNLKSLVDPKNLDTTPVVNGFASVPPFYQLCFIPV

[4] = biological target: T1, Polyadenylate-binding protein 1 (Homo sapiens, UniProt P11940); assay: MLLE domain peptide-binding blockers, IC50 – biochemical, fluorescence polarization, FITC-PAM2 peptide, dose response (AID 602259); assay type: functional; settings: read-out: IC50_Mean
T1 sequence (P11940 whole entry, the tested form may be a part): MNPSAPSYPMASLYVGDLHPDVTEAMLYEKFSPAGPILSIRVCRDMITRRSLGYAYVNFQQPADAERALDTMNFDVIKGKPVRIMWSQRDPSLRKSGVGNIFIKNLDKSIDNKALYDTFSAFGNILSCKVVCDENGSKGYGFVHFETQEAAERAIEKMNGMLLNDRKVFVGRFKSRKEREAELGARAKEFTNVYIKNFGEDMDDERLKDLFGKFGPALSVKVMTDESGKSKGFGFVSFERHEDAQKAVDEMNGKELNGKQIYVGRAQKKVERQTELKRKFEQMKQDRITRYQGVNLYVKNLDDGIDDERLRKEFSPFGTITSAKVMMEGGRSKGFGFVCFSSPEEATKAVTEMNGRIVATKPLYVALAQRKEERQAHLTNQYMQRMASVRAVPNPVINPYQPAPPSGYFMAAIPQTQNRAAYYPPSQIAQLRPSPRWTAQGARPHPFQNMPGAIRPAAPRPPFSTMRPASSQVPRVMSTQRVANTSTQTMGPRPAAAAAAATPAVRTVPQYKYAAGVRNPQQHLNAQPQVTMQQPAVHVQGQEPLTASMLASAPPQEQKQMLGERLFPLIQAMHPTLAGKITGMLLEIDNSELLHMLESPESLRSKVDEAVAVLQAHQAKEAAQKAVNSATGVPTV

Cytochrome P450 1A2 = biological target: T2, Cytochrome P450 1A2 (Homo sapiens, UniProt P05177);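 also: PubChem cytochrome P450 panel assay, CYP1A2 panel member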
T2 sequence (P05177 whole entry): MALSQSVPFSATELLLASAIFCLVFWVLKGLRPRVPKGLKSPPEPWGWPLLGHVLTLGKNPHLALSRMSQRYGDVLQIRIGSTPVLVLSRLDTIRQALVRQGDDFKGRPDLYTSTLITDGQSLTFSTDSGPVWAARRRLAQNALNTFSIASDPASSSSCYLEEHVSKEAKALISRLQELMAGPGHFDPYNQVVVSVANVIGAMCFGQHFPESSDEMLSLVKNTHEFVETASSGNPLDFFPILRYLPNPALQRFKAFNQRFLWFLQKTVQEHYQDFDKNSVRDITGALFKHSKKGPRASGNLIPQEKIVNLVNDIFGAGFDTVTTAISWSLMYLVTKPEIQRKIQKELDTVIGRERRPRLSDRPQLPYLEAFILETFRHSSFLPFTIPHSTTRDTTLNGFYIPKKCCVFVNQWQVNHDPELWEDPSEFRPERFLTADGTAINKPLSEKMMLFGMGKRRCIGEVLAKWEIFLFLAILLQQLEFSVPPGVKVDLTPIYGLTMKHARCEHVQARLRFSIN

Cytochrome P450 3A4 = Cytochrome P450 3A4 (Homo sapiens, UniProt P08684);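 also: CYP3A4 tested as one member of a cytochrome P450 panel screen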
Sequence of Cytochrome P450 3A4 (P08684 whole entry): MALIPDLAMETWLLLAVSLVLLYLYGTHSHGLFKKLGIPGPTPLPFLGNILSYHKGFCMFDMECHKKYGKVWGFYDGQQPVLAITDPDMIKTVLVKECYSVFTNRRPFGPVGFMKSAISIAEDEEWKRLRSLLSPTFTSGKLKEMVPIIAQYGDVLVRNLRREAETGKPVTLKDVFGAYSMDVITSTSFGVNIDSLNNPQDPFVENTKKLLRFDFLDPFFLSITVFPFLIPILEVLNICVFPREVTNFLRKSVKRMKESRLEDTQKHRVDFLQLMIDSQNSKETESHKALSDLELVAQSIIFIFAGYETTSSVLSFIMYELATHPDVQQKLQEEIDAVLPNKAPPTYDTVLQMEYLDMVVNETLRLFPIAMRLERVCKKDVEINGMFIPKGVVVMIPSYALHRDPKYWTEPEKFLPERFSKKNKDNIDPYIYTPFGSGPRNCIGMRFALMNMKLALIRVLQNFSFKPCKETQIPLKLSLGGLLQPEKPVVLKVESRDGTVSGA

[5] = biological target: T1, Polyadenylate-binding protein 1; assay: MLLE binding blockers, Cy5 peptide tracer – biochemical, fluorescence polarization, Cy5-PAM2 peptide, secondary, miRNA deadenylation inhibitor project, dose response (AID 602260); assay type: functional; settings: read-out: IC50_Mean
[6] = viability of HCT116 lacking mutant beta-catenin – cell-based, human colon tumor, dose response (AID 1045); assay type: functional;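 also: HCT116 colon tumor cells with beta catenin knocked out; cells exposed to compound for 60 hours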
[7] = viability of PTEN-deleted HCT116 cells – cell-based, HCT116 PTEN knockout, dose response (AID 1047); assay type: functional;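 also: HCT116 colon tumor cells with PTEN knocked out; cells exposed to compound for 60 hours before readout; potency for loss of cell viability measured by luminescence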
[8] = tested on: Streptococcus sp. 'group A'; assay: Streptococcus pyogenes SK(-)GAS viability under kanamycin – luminescence, BacTiterGlo, confirmation, counter-screen for streptokinase expression inhibitor project, dose response (AID 1900); assay type: functional, organism-based
Streptokinase A = biological target: T3, Streptokinase A (Streptococcus pyogenes serotype M1, UniProt P10520); assay: viability-normalized secreted streptokinase activity reduction – plasminogen activation absorbance, OD405, dose response (AID 1914); assay type: functional, Streptococcus pyogenes M1 GAS;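 also: secreted streptokinase activity via plasminogen activation per viability signal from cell pellet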
T3 sequence (P10520 whole entry): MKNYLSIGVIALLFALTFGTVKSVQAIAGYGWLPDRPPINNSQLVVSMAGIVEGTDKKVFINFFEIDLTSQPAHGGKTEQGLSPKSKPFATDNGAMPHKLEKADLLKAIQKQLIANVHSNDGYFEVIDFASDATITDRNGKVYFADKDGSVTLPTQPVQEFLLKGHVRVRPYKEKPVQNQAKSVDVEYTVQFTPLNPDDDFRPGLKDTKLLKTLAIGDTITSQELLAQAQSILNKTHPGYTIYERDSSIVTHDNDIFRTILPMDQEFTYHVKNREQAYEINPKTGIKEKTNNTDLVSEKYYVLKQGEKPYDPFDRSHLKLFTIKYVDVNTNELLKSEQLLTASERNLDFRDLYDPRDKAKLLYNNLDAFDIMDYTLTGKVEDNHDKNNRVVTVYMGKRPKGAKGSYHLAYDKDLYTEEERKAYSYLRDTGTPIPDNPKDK

Streptococcus = assay: GAS UMAA2166 growth inhibition – luminescence, BacTiterGlo, counter-screen for streptokinase expression inhibitor project, dose response (AID 1915); assay type: functional, organism-based;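 also: potency for reduction of bacterial viability or growth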

## COc1ccc(CCN2CC(C(=O)NCCc3ccccc3C(F)(F)F)CCC2=O)cc1 (stereo unspecified)
[1]
  EC50: > 112 µM (not active)
[2]
  EC50: > 112 µM (not active)

## Cc1cc(OCC(=O)Nc2ccncc2)ccc1Br
cells
  IC50: > 50 µM (active)

## COc1ccc(NC(=O)c2ccc(-c3ccc([N+](=O)[O-])cc3)o2)cc1OC
cells
  IC50: > 50 µM (active)

## O=C(c1ccco1)N1CCN(C(=S)Nc2ccc(F)c(Cl)c2)CC1
Large T antigen
  IC50: > 100 µM (active)

## O=C(Nc1ccccc1F)c1cnc(O)nc1O
[1]
  EC50: > 112 µM (not active)
[2]
  EC50: > 112 µM (not active)

## Cc1ccc2c(c1)c1ncn(CCC3=CCCCC3)c(=O)c1n2C
[3]
  AC50: 1 µM (active)

## CCOC(=O)N1CCN(C(=O)CSCc2nc(-c3ccccc3F)oc2C)CC1
Cytochrome P450 2C9
  AC50: 14.1 µM (inconclusive)
[4]
  IC50: > 66 µM (inactive)
Cytochrome P450 1A2
  AC50: 12.6 µM (inconclusive)
Cytochrome P450 3A4
  AC50: 25.1 µM (inconclusive)
[5]
  IC50: > 66 µM (inactive)

## COc1cccc(OCC(=O)NNC(=O)C(=O)Nc2cccc(C)c2)c1
cells
  IC50: 20.4 µM (active)

## Cn1cc([N+](=O)[O-])c(C(=O)Nc2ccc(Br)cn2)n1
[6]
  EC50: 4.91 µM (active)
[7]
  EC50: 5.55 µM (active)

## CCc1noc(C)c1C(=O)OCC(=O)NC(=O)c1ccccc1
[8]
  EC50: > 150 µM (not active)
Streptokinase A
  EC50: > 150 µM (not active)
Streptococcus
  EC50: > 150 µM (not active)

## COc1ccc(C2=NOC(CNC(N)=S)C2)cc1 (stereo unspecified)
Streptokinase A
  EC50: > 150 µM (not active)

## COc1ccc(CNC(=O)c2ccccc2NC(=O)C2=CSCCO2)c(OC)c1
[1]
  EC50: 15.7 µM (active)
[2]
  EC50: > 112 µM (not active)

## CCCNC(=O)NC(=O)COc1ccc(-c2ccc(C#N)cc2)cc1
cells
  IC50: 1.12 µM (active)

## CN1C2CCC1CC(NC(=O)CSc1ccc(Cl)cc1)C2 (stereo unspecified)
[1]
  EC50: > 112 µM (not active)
[2]
  EC50: > 112 µM (not active)

## Cc1ccc(NC(=O)CO/N=C/c2ccccc2C)c(C)c1
cells
  IC50: 50 µM (active)

## O=C1NC(=S)N=C1c1c(O)[nH]c2ccccc12
[1]
  EC50: > 112 µM (not active)
[2]
  EC50: > 112 µM (not active)

## COC(=O)c1ccc(/C=C/c2c(-c3ccc(OC)cc3)sc3ccccc23)cc1
[3]
  AC50: 3.79 µM (active)

## CCCC(=O)NC(Nc1cc(C(F)(F)F)ccc1Cl)C(Cl)(Cl)Cl (stereo unspecified)
[6]
  EC50: 33.6 µM (active)
[7]
  EC50: 25.5 µM (active)

## COc1c(Cl)cnn(-c2ccc(C)cc2)c1=O
[6]
  EC50: 11.5 µM (active)
[7]
  EC50: 15.5 µM (active)

## O=C(CCn1c(=O)oc2cc(Cl)ccc21)Nc1ccc(O)cc1
Large T antigen
  IC50: 25.2 µM (active)

## COc1c(F)c(F)c(-c2csc(N)n2)c(F)c1F
[4]
  IC50: > 66 µM (inactive)
[5]
  IC50: > 66 µM (inactive)

## CCc1cccc(NC(=O)CN(C)S(=O)(=O)c2c[nH]cn2)c1
[1]
  EC50: > 112 µM (not active)
[2]
  EC50: > 112 µM (not active)

## COc1cc(/C(C)=N/NC(=O)CSc2nc3ccccc3[nH]2)ccc1O
Large T antigen
  IC50: 22.9 µM (active)

## Cc1cccc(-c2oc3ccccc3c2-c2ccc3c(c2)OCO3)c1
[8]
  EC50: 2.25 µM (active)
Streptokinase A
  EC50: 5.16 µM (active)
Streptococcus
  EC50: > 150 µM (not active)

## Cc1ccc(OCCCCc2c(C)n[nH]c2C)cc1
[8]
  EC50: 16.3 µM (active)
Streptokinase A
  EC50: > 150 µM (not active)
Streptococcus
  EC50: > 150 µM (not active)
cells
  IC50: 25.6 µM (active)

## Cc1cc(C)c2c(c1)cc(C)c1nnc(SCC(=O)Nc3ccccc3N3CCOCC3)n12
[1]
  EC50: > 112 µM (not active)
[2]
  EC50: > 112 µM (not active)

## O=C(c1ccc(S(=O)(=O)N2CCOCC2)cc1)N1CCN(c2ccc(F)cc2)CC1
[1]
  EC50: 93.8 µM (active)
[2]
  EC50: > 112 µM (not active)

## N#Cc1nc(-c2ccc(OCc3ccccc3Cl)cc2)oc1NCCCn1ccnc1
[8]
  EC50: 4.38 µM (active)
Streptokinase A
  EC50: 16.6 µM (active)
Streptococcus
  EC50: > 150 µM (not active)

## O=C(NC(=S)Nc1cccnc1)c1cccc(Cl)c1
[4]
  IC50: > 66 µM (inactive)
[5]
  IC50: > 66 µM (inactive)

## Cc1cccc2nc(CSCc3ccco3)cn12
[4]
  IC50: > 66 µM (inactive)
[5]
  IC50: > 66 µM (inactive)

## Nc1ccc(Nc2nc3ccccc3[nH]2)cc1
Large T antigen
  IC50: 7.8 µM (active)

## O=C(NCCc1c[nH]c2ccccc12)C(=O)c1c[nH]c2ccccc12
[3]
  AC50: 1.48 µM (active)

## CCN(CC)CCNC(=O)c1ccc2c(=O)n(C3CCCC3)c(=S)[nH]c2c1
[6]
  EC50: 14.1 µM (active)
[7]
  EC50: 17.2 µM (active)

## C/C(CC(=O)Nc1ccc(N(C)C)cc1)=N\NC(=O)c1ccc(Cl)cc1Cl
Large T antigen
  IC50: 9.26 µM (active)

## O=C(NC(=S)Nc1ccccc1N1CCCCC1)c1ccco1
[4]
  IC50: > 66 µM (inactive)
[5]
  IC50: > 66 µM (inactive)

## O=C1CSC(=S)N1c1cccnc1
[4]
  IC50: > 66 µM (inactive)
[5]
  IC50: > 66 µM (inactive)

## COc1ccc(S(=O)(=O)NCC2CCCN(Cc3ccc(OC)cc3F)C2)cc1 (stereo unspecified)
[8]
  EC50: 114 µM (active)
Streptokinase A
  EC50: > 150 µM (not active)
Streptococcus
  EC50: > 150 µM (not active)

## COc1ccc(C(C)=O)cc1COc1cc(C)c(Cl)c(C)c1
[8]
  EC50: > 150 µM (not active)
Streptokinase A
  EC50: > 150 µM (not active)
Streptococcus
  EC50: > 150 µM (not active)

## COc1ccc(Cn2c(-c3ccco3)nc3oc4ccccc4c(=O)c3c2=O)cc1
[8]
  EC50: 12.1 µM (active)
Streptokinase A
  EC50: > 150 µM (not active)
Streptococcus
  EC50: 86.5 µM (active)

## COc1ccc2c(c1OC)C(=O)N1C2SC[C@H]1C(=O)NC1CCCC1 (stereo partly specified)
[4]
  IC50: > 66 µM (inactive)
[5]
  IC50: > 66 µM (inactive)

## COc1ccc(N/C=C/C(=O)c2ccccc2)cc1
[1]
  EC50: < 0.701 µM (active)
[2]
  EC50: 0.863 µM (active)

## COC(=O)c1cc(-c2ccc(OC)cc2F)nc2nc(SC)nc(O)c12
[8]
  EC50: 8.08 µM (active)
Streptokinase A
  EC50: > 150 µM (not active)
Streptococcus
  EC50: 23.3 µM (active)

## CCCn1c(NC(=O)c2cccc(C)c2C)nc2ccccc21
[8]
  EC50: 7.43 µM (active)
Streptokinase A
  EC50: > 150 µM (not active)
Streptococcus
  EC50: > 150 µM (not active)

## CN(C)c1ccc(N2CC(C)(C)C2=O)cc1
Large T antigen
  IC50: 4.39 µM (active)

## Cc1ccc(S(=O)(=O)CNC(=S)c2ccc3ccccc3c2)cc1
Streptokinase A
  EC50: > 150 µM (not active)

## CCOc1ccc(CN2CCN(CC(O)Cn3c4ccccc4c4ccccc43)CC2)cc1 (stereo unspecified)
[6]
  EC50: 9.01 µM (active)
[7]
  EC50: 9.94 µM (active)

## CCC(C)SCc1nc2ccccc2[nH]1 (stereo unspecified)
[1]
  EC50: > 112 µM (not active)
[2]
  EC50: > 112 µM (not active)

## CC(=O)Nc1ccc(-c2csc(NC(=O)Cc3cccc(F)c3)n2)cc1
[3]
  AC50: 1.29 µM (active)

## O=c1c2ccccc2nc(/C=C/c2ccc(Br)cc2)n1CCO
[3]
  AC50: 10.5 µM (active)

## O=C(Cc1ccccc1)Nc1cccc(NC(=O)c2ccccc2)c1
[3]
  AC50: 7.49 µM (active)

## CS(=O)(=O)c1ccc([C@@H](O)[C@@H](CO)NC(=O)C(Cl)Cl)cc1 [THIAMPHENICOL]
[8]
  EC50: 1.89 µM (active)
Streptokinase A
  EC50: 4.02 µM (active)
Streptococcus
  EC50: 4.55 µM (active)

## O=C1c2ccccc2C2=Nc3ccccc3SC(c3ccccc3F)C12 (stereo unspecified)
[8]
  EC50: 8.24 µM (active)
Streptokinase A
  EC50: 4.91 µM (active)
Streptococcus
  EC50: 12.7 µM (active)
Cytochrome P450 3A4
  AC50: 0.355 µM (inconclusive)
